# Measured values reported in ChEMBL document CHEMBL2346569, “Synthesis and biological evaluation of pyridazine derivatives as novel HIV-1 NNRTIs” (Bioorg Med Chem, 2013).
# Assays:
# [1] = Cytotoxicity against mock-infected human MT4 cells assessed as cell viability after 5 days by MTT assay; format: cell-based
# [2] = tested on: Human immunodeficiency virus 2; assay: Antiviral activity against HIV2 ROD infected in human MT4 cells assessed as protection against virus-induced cytopathicity after 5 days by MTT assay; format: functional, organism-based, ISOLATE ROD
# [3] = Selectivity index, ratio of CC50 for mock-infected human MT4 cells to EC50 for wild type HIV1 3B
# [4] = tested on: Human immunodeficiency virus 1; assay: Antiviral activity against HIV1 RES056 harboring reverse transcriptase K103N/Y181C double mutant infected in human MT4 cells assessed as protection against virus-induced cytopathicity after 5 days by MTT assay; format: functional, organism-based
# [5] = tested on: Human immunodeficiency virus 1; assay: Antiviral activity against wild type HIV1 3B infected in human MT4 cells assessed as protection against virus-induced cytopathicity after 5 days by MTT assay; format: functional, organism-based; details: Human immunodeficiency virus 1, 3B, MT4, 120 h
# [6] = target: Human immunodeficiency virus type 1 reverse transcriptase (Human immunodeficiency virus 1, UniProt Q72547); assay: Inhibition of HIV 1 reverse transcriptase assessed as incorporation of biotin-dUTP into poly rA.dT by ELISA
# [7] = tested on: Human immunodeficiency virus 1; assay: Antiviral activity against wild type HIV1 LAI infected in human MT4 cells assessed as protection against virus-induced cytopathicity after 5 days by MTT assay; format: functional, organism-based; details: Human immunodeficiency virus 1, LAI, MT4, 120 h
# [8] = tested on: Human immunodeficiency virus 1; assay: Antiviral activity against HIV1 harboring reverse transcriptase L100I/K103N double mutant infected in human MT4 cells assessed as protection against virus-induced cytopathicity after 5 days by MTT assay; format: functional, organism-based; details: Human immunodeficiency virus 1, MT4, 120 h
# [9] = tested on: Human immunodeficiency virus 1; assay: Antiviral activity against HIV1 harboring reverse transcriptase K103N/Y181C double mutant infected in human MT4 cells assessed as protection against virus-induced cytopathicity after 5 days by MTT assay; format: functional, organism-based; details: Human immunodeficiency virus 1, MT4, 120 h
SMILES,CC50 at 120 h [1],EC50 ([2]; mt4),selectivity ratio ([3]; mock-infected MT4 cells),EC50 ([4]; mt4),EC50 [5],IC50 [6],EC50 [7],selectivity ratio ([3]; mt4),"EC50 ([4]; Human immunodeficiency virus 1, RES056, MT4, 120 h, read-out: EC50)","EC50 ([2]; Human immunodeficiency virus 2, ISOLATE ROD, MT4, 120 h, read-out: EC50)",EC50 [8],EC50 [9]
Cc1cc(C#N)cc(C)c1Oc1nc(Nc2ccc(C#N)cc2)nc(N)c1Br [ETRAVIRINE],> 4600 nM,Not Active,,,,,,,,,,
Cc1cc(C)c(Oc2cc(Nc3ccc(Cl)cc3)nnc2Cl)c(C)c1,210000 nM,Not Active,1510,Not Active,139 nM,,,,,,,
Cc1cccc(C)c1Oc1cc(Nc2ccc(C#N)cc2)nnc1Cl,290000 nM,Not Active,537,Not Active,540 nM,,,,,,,
Cc1cccc(C)c1Oc1cc(Nc2ccc(C#N)cc2)n[nH]c1=O,205000 nM,Not Active,108,Not Active,1900 nM,,,,,,,
Cc1cc(Br)cc(C)c1Oc1cc(Nc2ccc(C#N)cc2)n[nH]c1=O,19500 nM,Not Active,16,Not Active,1190 nM,,,,,,,
Cc1cc(C#N)cc(C)c1Oc1cc(Nc2ccc(C#N)cc2)nnc1Cl,53200 nM,Not Active,369,Not Active,144 nM,,,,,,,
Cc1cc(C)c(Oc2cc(N(C)c3ccc(C#N)cc3)nn(C)c2=O)c(C)c1,≥ 246000 nM,Not Active,≥ 73,Not Active,3360 nM,,,,,,,
Cc1cc(Br)c(Oc2cc(Nc3ccc(C#N)cc3)nnc2Cl)c(Br)c1,19200 nM,Not Active,565,Not Active,34 nM,3180 nM,,,,,,
Cc1cc(C)c(Oc2cc(Nc3ccc(Cl)cc3)n[nH]c2=O)c(C)c1,5980 nM,Not Active,8,Not Active,780 nM,,,,,,,
Cc1cc(C)c(Oc2cc(Nc3ccc([N+](=O)[O-])cc3)n[nH]c2=O)c(C)c1,37100 nM,Not Active,7,Not Active,5080 nM,,,,,,,
CC(C)Nc1cccnc1N1CCN(C(=O)c2cc3cc(NS(C)(=O)=O)ccc3[nH]2)CC1 [DELAVIRDINE],> 43400 nM,Not Active,> 1030,Not Active,42 nM,,,,,,,
Cc1ccc(Nc2cc(Oc3c(C)cc(C)cc3C)c(Cl)nn2)cc1,244000 nM,Not Active,1210,Not Active,201 nM,,,,,,,
Cc1cc(C#N)cc(C)c1Oc1ccc(=O)n(Nc2ccc(C#N)cc2)n1,,,,,,,1750 nM,,,,,
Cc1cc(C)c(Oc2cc(Nc3ccc([N+](=O)[O-])cc3)nnc2Cl)c(C)c1,940 nM,Not Active,< 1,Not Active,> 940 nM,,,,,,,
N#Cc1ccc(Nc2cc(Oc3c(Br)cc(Br)cc3Br)c(=O)[nH]n2)cc1,139000 nM,Not Active,221,Not Active,630 nM,,,,,,,
COc1ccc(Nc2cc(Oc3c(C)cc(C)cc3C)c(=O)[nH]n2)cc1,5880 nM,Not Active,4,Not Active,1590 nM,,,,,,,

SMILES,CC50 at 120 h [1],EC50 ([2]; mt4),selectivity ratio ([3]; mock-infected MT4 cells),EC50 ([4]; mt4),EC50 [5],IC50 [6],EC50 [7],selectivity ratio ([3]; mt4),"EC50 ([4]; Human immunodeficiency virus 1, RES056, MT4, 120 h, read-out: EC50)","EC50 ([2]; Human immunodeficiency virus 2, ISOLATE ROD, MT4, 120 h, read-out: EC50)",EC50 [8],EC50 [9]
Cc1cc(C)c(Oc2cc(Nc3ccc(C#N)cc3)n[nH]c2=O)c(C)c1,47000 nM,Not Active,180,Not Active,260 nM,,,,,,,
Cc1cc(C)c(Oc2cc(Nc3cccc(Cl)c3)n[nH]c2=O)c(C)c1,119000 nM,Not Active,8,Not Active,14400 nM,,,,,,,
Cc1cc(Br)cc(C)c1Oc1cc(Nc2ccc(C#N)cc2)nnc1Cl,84100 nM,Not Active,210,Not Active,400 nM,,,,,,,
N#Cc1ccc(Nc2cc(Oc3c(Cl)cc(Cl)cc3Cl)c(=O)[nH]n2)cc1,35000 nM,Not Active,,Not Active,≥ 9200 nM,,,,,,,
O=C1Nc2ccc(Cl)cc2[C@@](C#CC2CC2)(C(F)(F)F)O1 [EFAVIRENZ],> 2000 nM,,,,7 nM,,,> 286,590 nM,20 nM,,
Cc1cc(C)c(Oc2cc(Nc3ccc(C#N)cc3)nn(C)c2=O)c(C)c1,143000 nM,Not Active,123,Not Active,1160 nM,,,,,,,
N#Cc1ccc(Nc2cc(Oc3c(Br)cc(Br)cc3Br)c(Cl)nn2)cc1,22300 nM,Not Active,124,Not Active,180 nM,,,,,,,
Cc1cc(C#N)cc(C)c1Oc1nc(Nc2ccc(C#N)cc2)c(=O)n(C)c1C,,,,,,,6 nM,,,,158 nM,61 nM
Cc1cc(C)c(Oc2cc(Nc3ccc(C#N)cc3)nnc2Cl)c(C)c1,36300 nM,Not Active,461,Not Active,79 nM,,,,,,,
COc1cccc(OC)c1Oc1cc(Nc2ccc(C#N)cc2)nnc1Cl,2900 nM,Not Active,< 1,Not Active,> 2900 nM,,,,,,,
Cc1cc(Br)c(Oc2cc(Nc3ccc(C#N)cc3)n[nH]c2=O)c(Br)c1,154000 nM,Not Active,733,Not Active,210 nM,,,,,,,
Cc1ccc(Nc2cc(Oc3c(C)cc(C)cc3C)c(=O)[nH]n2)cc1,185000 nM,Not Active,119,Not Active,1550 nM,,,,,,,
N#Cc1ccc(Nc2cc(Oc3c(Cl)cccc3Cl)c(Cl)nn2)cc1,93100 nM,Not Active,423,Not Active,220 nM,,,,,,,
N#Cc1ccc(Nc2cc(Oc3c(Cl)cc(Cl)cc3Cl)c(Cl)nn2)cc1,18600 nM,Not Active,120,Not Active,155 nM,,,,,,,
Cc1cc(C#N)cc(C)c1Oc1cc(Nc2ccc(C#N)cc2)n[nH]c1=O,272000 nM,Not Active,96,Not Active,2830 nM,,,,,,,
Cc1ccnc2c1NC(=O)c1cccnc1N2C1CC1 [NEVIRAPINE],> 14900 nM,Not Active,,Not Active,,,,,,,,
